In patent US20190070170A1, “METHOD OF S[…]-1” (Macau University of Science and Technology, priority 2017, published 2019):

Experiments:
COX-2 [1] = assay: COX-2 mRNA level in LPS-activated rat peritoneal macrophages (qRT-PCR); assay type: cell-based; settings: SIN 1 h, LPS 12 h
Experimental: Peritoneal macrophages were cultured in 6-well plates and pre-treated with the indicated concentration of SIN for 1 h, followed by LPS stimulation for another 12 h. RNA was isolated from rat peritoneal macrophages using the Nucleospin RNA kit from Macherey-Nagel (Duren, Germany) according to the manufacturer's instructions. RNA concentration derived from each sample was assessed by NanoDrop UV Spectrophotometer from Thermo Scientific (Asheville, N.C., USA). RNA (1 μg) was reverse transcripted using the transcriptor universal cDNA master reagents from Roche Applied Science (Mannheim, Germany). Gene expression quantification was performed by a high-productivity real-time quantitative PCR ViiA™ 7 machine using SYBR Green reagents from Roche Applied Science (Mannheim, Germany) according a standard protocol recommended by the manufacturer and the cycling parameters were as followed: uracil removal incubation (50° C., 2 min), polymerase activation (95° C., 10 min), 40 cycles of denaturation (95° C., 15 s) and annealing/extension (60° C., 30 s) and a melt curve stage (95° C., 15 s, 60° C., 1 min and 95° C., 15 s).
Rat primers used in the research are listed as follows:
• The levels of gene expression were quantitated using the 2(−Delta Delta C(T)) method. […]

cPLA2 = cPLA2 protein expression in LPS-activated rat peritoneal macrophages (western blotting); assay type: cell-based; settings: SIN or DEX 1 h, LPS 24 h
Experimental: (§1) Sprague-Dawley (SD) rats from the University of Hong Kong were housed in cages with free access to food and water. Peritoneal macrophages of SD rats were isolated as described in Liu J. et al., Pharmacological research 2016, 111:303-315. Briefly, untreated rats were sacrificed and after laparotomy, about 50 ml cold sterile Hank's balanced salt solution (HBSS) was used to lavage the peritoneal cavity at twice, and then the peritoneal lavage fluid was collected and centrifuged at 1500 rpm for 10 min. The cell pellets was suspended at a density 1.5×10^6 cells/ml in pre-hearted DMEM medium with 10% heat-inactivated FBS, penicillin G (100 units/ml), streptomycin ([…]), and L-glutamine (2 mM), followed by seeding in 6-well plates at a density of 4.5×10^6 cells and incubation for 2 h. Then the medium were discarded to remove the non-adherent cells. The adherent cells were further washed for two times with pre-heated DMEM medium to remove floating cells. Next, cells were pre-treated with various concentration of SIN for 1 h, followed by stimulation with LPS (1 μg/ml).
(§2) Whole-cell and nuclear proteins were obtained using RIPA lysis buffer (CST, Boston, Mass., USA) and Nuclear and Cytoplasmic Extraction Reagents kit from Thermo Scientific (Asheville, N.C., USA), respectively. […] The levels of protein expression were measured using Odyssey v3.0 software from Li-COR (Lincoln, Nebr., USA).

[2] = tested on: mitogen-activated protein kinase (MAPK); assay: MAPK pathway (p-JNK, p-p38, p-ERK, p-c-Jun) in LPS-stimulated rat peritoneal macrophages (western blotting); assay type: cell-based; settings: SIN 1 h, LPS 1 μg/ml 15 min or 1 h
Experimental: as §1, §2

COX-2 [3] = assay: COX-2 protein in microsomes of inflamed paw of carrageenan-induced rats (western blotting); assay type: in vivo, SD rats; settings: SIN or DEX pretreatment i.p.
Experimental: The model of carrageenan-induced paw edema was performed with SD rats (150-200 g). The carrageenan-induced paw edema was performed in SD rats (150-200 g) by subcutaneously injection λ-carrageenan as described in Liu J. et al., Pharmacological research 2016, 111 and Luo P. et al., J. Pharmacol. Exp. Ther. 2010. Briefly, rats were fasted for 12 h before experiment and intraperitoneal injection was performed with three different doses (25, 50 and 100 mg/kg) of SIN, or DEX (reference drug, 2 mg/kg) or 0.9% saline (Vehicle and Normal group rats), at 2 h prior to the induction of paw edema. […] Paw volumes (ml) of right hind foot of each rat were measured using a plethysmometer (type 7150; UGO Basile, Comerio, Italy) at 0 h (before carrageenan injection) and then again at 1, 2, 3 and 4 h after the injection of carrageenan or saline. The percentage of paw edema of the right hind paws of all groups were calculated at different time points by the following equation: […]
as §2

## COC1=C[C@@H]2[C@@H]3Cc4ccc(OC)c(O)c4[C@]2(CCN3C)CC1=O [SIN, sinomenine]
COX-2 [1]
  gene level of COX-2 (mRNA): did not suppress
cPLA2
  cPLA2 expression: no influences
[2]
  influence on MAPK pathway: No observable effects
COX-2 [3]
  COX-2 level in inflamed paw: did not produce observable effects
